Results reported in publication PMC6181319, “Thermodynamic and computational analyses reveal the functional roles of the galloyl group of tea catechins in molecular recognition” (PLoS ONE, 2018).
Where two headings read alike, the source gives them in different places. Marks after values point to notes of the source that are not given here. Values belong to the molecule of their own block, whether it stands above or below them.

How the values were obtained:
[1] = target: T1, human serum albumin (HSA) (Homo sapiens, UniProt P02768); assay: Isothermal titration calorimetry (ITC) of binding of catechins and analogs to HSA; set-up: purchased Sigma-Aldrich Japan (Tokyo, Japan); conditions: for change of binding affinity with addition of 0.2 M NaCl: 0.2 M NaCl versus no NaCl
Protocol: The binding of the catechins and its analogs to HSA was examined in a VP-ITC instrument (Microcal Northampton, MA). […] The data were analyzed with the Origin software (ver. 7) by means of a single-binding-site model. The thermodynamic parameters were obtained from three replicate titrations, where the dilution heats of the ligands were subtracted.

[2] = target: T1, human serum albumin (HSA); assay: Differential scanning calorimetry (DSC), thermal stability of HSA–ligand complexes; conditions: for Tm: DSC, HSA 50 μM, ligand 500 μM, 50 mM sodium phosphate pH 6.8, HSA alone 68.6 ± 0.1; for ΔTm at 500 µM: human, pH 6.8
Protocol: The thermal stabilities of HSA and the HSA–ligand complexes were determined by differential scanning calorimetry in a VP-DSC autosampler instrument (GE Healthcare). The cell was heated from 303 to 363 K at a rate of 1 K min^−1. The concentrations of HSA and the ligands were 50 and 500 μM, respectively, in a buffer composed of 50 mM sodium phosphate (pH 6.8). The data analysis was carried out with the Origin software (ver. 7) using a two-state model.

[3] = Table 2, methylated catechin derivatives, ITC, 298 K
[4] = Table 2, methylated catechin derivatives, ITC, 298 K, 50 mM sodium phosphate pH 6.8
[5] = Table 2, methylated catechin derivatives, ITC, 298 K, 50 mM sodium phosphate pH 6.8, read-out: KD
[6] = S2 Table, NaCl 0.2 M, read-out: KD
[7] = Table 1, ITC, 298 K, 50 mM sodium phosphate pH 6.8
[8] = Table 1, ITC, 298 K, 50 mM sodium phosphate pH 6.8, HSA 50 μM, single-binding-site model
[9] = Table 1, ITC, 298 K, 50 mM sodium phosphate pH 6.8, read-out: KD

T1 sequence (P02768 25-609): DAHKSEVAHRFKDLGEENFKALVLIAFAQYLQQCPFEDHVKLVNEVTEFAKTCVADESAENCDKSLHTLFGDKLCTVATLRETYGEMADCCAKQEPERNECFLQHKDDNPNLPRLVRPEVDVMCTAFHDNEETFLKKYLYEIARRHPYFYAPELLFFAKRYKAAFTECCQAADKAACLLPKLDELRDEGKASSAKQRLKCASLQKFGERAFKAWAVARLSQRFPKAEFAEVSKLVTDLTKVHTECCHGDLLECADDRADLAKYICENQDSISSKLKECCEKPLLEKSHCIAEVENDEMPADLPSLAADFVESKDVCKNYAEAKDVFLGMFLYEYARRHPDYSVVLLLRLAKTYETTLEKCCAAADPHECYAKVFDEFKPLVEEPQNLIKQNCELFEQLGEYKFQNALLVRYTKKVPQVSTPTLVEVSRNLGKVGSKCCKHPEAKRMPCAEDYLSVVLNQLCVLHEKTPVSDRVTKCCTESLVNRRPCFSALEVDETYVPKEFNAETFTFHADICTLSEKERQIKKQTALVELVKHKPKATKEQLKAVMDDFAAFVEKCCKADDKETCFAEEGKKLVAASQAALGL

ΔG [1, 3]: -7.9 ± 0.1 kcal/mol
ΔH [1, 3]: -9.3 ± 0.4 kcal/mol
−TΔS [1, 3]: 1.4 ± 0.3 kcal/mol
N (number of binding sites) [1, 4]: 0.9 ± 0.1
Kd [1, 5]: 1600 ± 200 nM
Compound: COc1cc([C@H]2Oc3cc(O)cc(O)c3C[C@H]2OC(=O)c2cc(O)c(O)c(O)c2)cc(O)c1O [EGCg-3′-O-Me, (−)-Epigallocatechin-3′-O-methylether gallate]

N ([1]; S3 Table, temperature 288 K): 1.1±0.1
ΔG ([1]; S3 Table, temperature 288 K): -8.9 ± 0.1 kcal/mol
ΔH ([1]; S3 Table, temperature 288 K): -5.7 ± 1.2 kcal/mol
−TΔS ([1]; S3 Table, temperature 288 K): -3.2 ± 1.2 kcal/mol
Kd ([1]; S3 Table, temperature 288 K, read-out: KD): 190 ± 40 nM
N ([1]; S3 Table, temperature 293 K): 1.0±0.1
ΔG ([1]; S3 Table, temperature 293 K): -9.3 ± 0.1 kcal/mol
ΔH ([1]; S3 Table, temperature 293 K): -6.9 ± 1.7 kcal/mol
−TΔS ([1]; S3 Table, temperature 293 K): -2.4 ± 1.7 kcal/mol
Kd ([1]; S3 Table, temperature 293 K, read-out: KD): 120 ± 20 nM
N ([1]; S3 Table, temperature 298 K): 1.0±0.1
ΔG ([1]; S3 Table, temperature 298 K): -9.4 ± 0.1 kcal/mol
ΔH ([1]; S3 Table, temperature 298 K): -7.4 ± 0.9 kcal/mol
−TΔS ([1]; S3 Table, temperature 298 K): -1.9 ± 0.9 kcal/mol
Kd ([1]; S3 Table, temperature 298 K, read-out: KD): 140 ± 20 nM
N ([1]; S3 Table, temperature 303 K): 1.1±0.1
ΔG ([1]; S3 Table, temperature 303 K): -9.4 ± 0.2 kcal/mol
ΔH ([1]; S3 Table, temperature 303 K): -8.7 ± 0.5 kcal/mol
−TΔS ([1]; S3 Table, temperature 303 K): -0.7 ± 0.4 kcal/mol
Kd ([1]; S3 Table, temperature 303 K, read-out: KD): 160 ± 40 nM
ΔG [1, 3]: -9.4 ± 0.1 kcal/mol
ΔH [1, 3]: -7.9 ± 0.9 kcal/mol
N (number of binding sites) [1, 4]: 1.0 ± 0.1
Kd [1, 5]: 140 ± 20 nM
Kd ([1]; human, human serum albumin (HSA) 50 µM in buffer, pH 6.8, Table 2, methylated catechin derivatives, ITC, 298 K, 50 mM sodium phosphate pH 6.8, read-out: KD): 200 nM
ΔCp (change in heat capacity) ([1]; slope of ΔH versus temperature, 288 to 303 K): −195 cal mol^−1 K^−1
Compound: COc1cc(C(=O)O[C@@H]2Cc3c(O)cc(O)cc3O[C@@H]2c2cc(O)c(O)c(O)c2)cc(O)c1O [EGCg-3′′-O-Me, (−)-epigallocatechin-3′′-O-methylether gallate]

ΔG [1, 3]: -7.9 ± 0.1 kcal/mol
ΔH [1, 3]: -7.0 ± 0.1 kcal/mol
−TΔS [1, 3]: -0.8 ± 0.1 kcal/mol
N (number of binding sites) [1, 4]: 0.9 ± 0.1
Kd [1, 5]: 1700 ± 100 nM
Compound: COc1c(O)cc([C@H]2Oc3cc(O)cc(O)c3C[C@H]2OC(=O)c2cc(O)c(O)c(O)c2)cc1O [EGCg-4′-O-Me, (−)-epigallocatechin-4′-O-methylether gallate]

ΔG [1, 3]: -8.2 ± 0.1 kcal/mol
ΔH [1, 3]: -9.8 ± 0.1 kcal/mol
−TΔS [1, 3]: 1.6 ± 0.1 kcal/mol
N (number of binding sites) [1, 4]: 1.0 ± 0.1
Kd [1, 5]: 1000 ± 100 nM
Compound: COc1c(O)cc(C(=O)O[C@@H]2Cc3c(O)cc(O)cc3O[C@@H]2c2cc(O)c(O)c(O)c2)cc1O [EGCg-4′′-O-Me, (−)-epigallocatechin-4′′-O-methylether gallate]

change of binding affinity with addition of 0.2 M NaCl ([1]; ITC): increased
Kd ([1]; S2 Table, NaCl 0 M, read-out: KD): 45700 nM
Kd [1, 6]: 16600 nM
ΔH/ΔG ([1]; Table 1, ITC, 298 K): 24%
ΔG [1, 7]: -5.9 ± 0.3 kcal/mol
ΔH [1, 7]: -1.4 ± 0.1 kcal/mol
−TΔS [1, 7]: -4.5 ± 0.4 kcal/mol
N (number of binding sites) [1, 8]: 1.0 ^b
Kd [1, 9]: 46000 ± 23000 nM
Compound: CCOC(=O)c1cc(O)c(O)c(O)c1 [EtGa, Ethyl gallate]

Compound: Oc1cc(O)c2c(c1)O[C@@H](c1cc(O)c(O)c(O)c1)[C@H](O)C2 [GC, (−)-gallocatechin]
Tm [2]: 69.3 ± 0.3 °C
ΔTm at 500 µM [2]: 0.7 °C
Kd ([1]; KD, S1 Table, ITC binding affinity listed beside Tm): 52000 ± 16000 nM
Kd ([1]; KD, Table 1, ITC, 298 K, 50 mM sodium phosphate pH 6.8): 52000 ± 16000 nM
ΔH/ΔG ([1]; Table 1, ITC, 298 K): 19%
ΔG [1, 7]: -5.8 ± 0.2 kcal/mol
ΔH [1, 7]: -1.1 ± 0.5 kcal/mol
−TΔS [1, 7]: -4.7 ± 0.7 kcal/mol
N (number of binding sites) [1, 8]: 1.0 ^b

Compound: O=C(O[C@@H]1Cc2c(O)cc(O)cc2O[C@H]1c1cc(O)c(O)c(O)c1)c1cc(O)c(O)c(O)c1 [GCg, (−)-gallocatechin gallate]
Tm [2]: 73.3 ± 0.2 °C
ΔTm at 500 µM ([2]; human serum albumin (HSA) 50 µM in buffer): 4.6 °C
change of binding affinity with addition of 0.2 M NaCl ([1]; ITC): decreased
thermodynamic profile of binding (enthalpy-driven or entropy-driven) ([1]; ITC, 298 K): entropy-driven
Kd ([1]; S1 Table, ITC binding affinity listed beside Tm, read-out: KD): 8800 ± 3400 nM
Kd [1, 6]: 18600 nM
ΔH/ΔG ([1]; Table 1, ITC, 298 K): 43%
ΔG [1, 7]: -6.9 ± 0.2 kcal/mol
ΔH [1, 7]: -3.0 ± 0.1 kcal/mol
−TΔS [1, 7]: -3.9 ± 0.3 kcal/mol
N (number of binding sites) [1, 8]: 1.2 ± 0.2
Kd [1, 9]: 8800 ± 3400 nM
